# Reference: patent publication US20220273016A1, “HUMAN MILK OLIGOSACCHARIDES FOR CONTROL OF DIETARY RESPONSE AND METABOLIC PHENOTYPE” (The Regents of the University of California, priority 2019, published 2022)
# Entries after “also recorded” stand apart in the source; their conditions may differ.
# Legend:
# [1] = Body weight and energy intake in mice fed a high-fat diet with 2′-FL in drinking water; format: in vivo, Male C57/BL6 mice; conditions: 2′-FL 10% (w/v) in drinking water, 6 wk, vs HF group
# Protocol: Animals were maintained and handled in accordance with protocols approved by the Institutional Animal Care and Use Committee (University of California, Davis). Male C57/BL6 mice (n=6/group; 6 week old, Harlan, San Diego, Calif.) were split into three weight-matched groups and fed either a low-fat (LF; 10% kcal as fat), high-fat (HF; 45% kcal as fat), or HF diet with 2′-FL (HF_2′-FL) at 10% (w/v) in drinking water for 6 wk. All animals were housed individually at 22° C. with 12 h:12 h light-dark cycles. Body weight and food intake were measured twice a week. Statistical analysis was performed using Prism software (Prism 8.1.2; GraphPad Software). Six-week HF feeding increased energy intake compared to the LF groups but without statistical significance (FIG. 1B). […] For FIGS. 1A and 1B, data are presented as means±SEMs. ROUT test was used to exclude outliers. Differences were considered significant if P<0.05.
# [2] = Body composition (EchoMRI fat and lean mass) and adipocyte size in mice fed LF or HF with or without 10% 2′-FL; format: in vivo; conditions: 10% 2′-FL supplementation diet, 8 weeks
# Protocol: Body composition for fat and lean mass (FIGS. 2A and 2B) was analyzed in live animals using EchoMRI-100 ™ from Echo Medical Systems (Houston, Tex.) every two weeks in mice fed an LF or HF with or without 10% 2′-FL supplementation. To measure the size of adipocytes (FIG. 2C), mesenteric adipose tissue collected at euthanasia was fixed in 10% neutral-buffered formalin (Thermo Fisher Scientific, Waltham, Mass.) overnight and transferred to 70% ethanol for one day. Afterwards, the tissues were processed in a routine manner for paraffin sections (Tissue Tek VIP Tissue Processor; Sakura Finetek USA, Torrance, Calif.). Paraffin-embedded sections (5 μm) were cut and stained with H&E (Sigma-Aldrich) for microscopic examination (Olympus BX60, Waltham, Mass.) at 20× magnification. To quantitate adipocyte size (FIG. 2C), the H&E-stained sections were analyzed using the ImageJ software (National Institutes of Health, Bethesda, Md.). For hepatic gene expression of peroxisome proliferator-activated receptor γ (PPAR γ) and sterol regulatory element binding protein-1c (SREBP-1c) (FIGS. 2D and 2E), total RNA from liver samples was extracted via the TRIzol method (Life Technologies, Grand Island, N.Y.). cDNAs were synthesized from […] of purified RNA samples using iScript cDNA synthesis kit (Bio-Rad, Hercules, Calif.) following the manufacturer's protocol. Real-time PCR was performed with the Quantstudio 6 Flex real-time PCR machine using SyberGreen master mix (Life Technologies) for detection. R-Actin and GAPDH were used as housekeeping genes. Genes of interest were analyzed according to the 2^−ΔΔT method and compared with control samples.
# For FIGS. 2A-2E, statistical analysis was performed by using Prism software (Prism 8.4; GraphPad Software, La Jolla, Calif.). Data are presented as means±SEMs. ROUT test was used to exclude outliers. Differences were considered significant if P<0.05.
# [3] = system: peroxisome proliferator-activated receptor γ (PPAR γ); experiment: Hepatic gene expression of PPARγ (real-time PCR); format: in vivo, mice; conditions: 10% 2′-FL supplementation diet, 8 weeks
# Protocol: (§1) Body composition for fat and lean mass (FIGS. 2A and 2B) was analyzed in live animals using EchoMRI-100 ™ from Echo Medical Systems (Houston, Tex.) every two weeks in mice fed an LF or HF with or without 10% 2′-FL supplementation. To measure the size of adipocytes (FIG. 2C), mesenteric adipose tissue collected at euthanasia was fixed in 10% neutral-buffered formalin (Thermo Fisher Scientific, Waltham, Mass.) overnight and transferred to 70% ethanol for one day. Afterwards, the tissues were processed in a routine manner for paraffin sections (Tissue Tek VIP Tissue Processor; Sakura Finetek USA, Torrance, Calif.). Paraffin-embedded sections (5 μm) were cut and stained with H&E (Sigma-Aldrich) for microscopic examination (Olympus BX60, Waltham, Mass.) at 20× magnification. To quantitate adipocyte size (FIG. 2C), the H&E-stained sections were analyzed using the ImageJ software (National Institutes of Health, Bethesda, Md.). […] Genes of interest were analyzed according to the 2^−ΔΔT method and compared with control samples. […]
# [4] = system: sterol regulatory element binding protein-1c (SREBP-1c); experiment: Hepatic gene expression of SREBP-1c (real-time PCR); format: in vivo, mice; conditions: 10% 2′-FL supplementation diet, 8 weeks
# Protocol: as §1
# [5] = CCK feeding study (food intake after i.p. CCK); format: in vivo, mice; conditions: HF + 10% 2′-FL, CCK i.p. vs saline, 6 h fast
# Protocol: (§2) After 4 weeks on respective diets, 2′-FL sensitivity to the satiating effect of the gut peptide CCK was tested (FIG. 3A). Experiments were performed at the onset of the dark phase. Mice were fasted on wire-bottom cages for 6 h during the light phase. At the onset of the dark phase, CCK (octapeptide, sulfated, Bachem, Torrance, Calif., 100 μl at […]; i.p.) or saline (100 μl; i.p.) was administered. Food was placed in the cage and food intake recorded after 20 min. After 6 weeks of respective diets, c-Fos expression in hindbrain was determined. (FIGS. 3B and 3C). Mice were fasted for 4 h, ip injected with CCK ([…]), and euthanized using deep anesthesia induced with pentobarbital (Fatal Plus, Vortech Pharmaceuticals, Dearborn, Mich., USA; 300 mg/kg; i.p.). The hindbrain was collected and post-fixed in 4% paraformaldehyde (Electron Microscopy Sciences, Hatfield, Pa.). Hindbrains were cryosectioned at 30 μm thickness and stained for c-Fos protein expression in the NTS and AP regions. […] Images were acquired using a confocal microscope (Leica TCS SP8 STED 3×; Leica, Wetzlar, Germany) and quantified in a blinded manner using Imaris Software (Bitplane, Zurich, Switzerland). […]
# c-Fos = c-Fos expression in hindbrain (NTS and AP) after CCK injection; format: in vivo, mice; conditions: 10% 2′-FL supplementation, CCK i.p.
# Protocol: as §2
# [6] = Gut permeability of cecum in Ussing chambers (FD-4 flux); format: in vivo, mice; conditions: 10% 2′-FL supplementation diet, 8 weeks, flux at 90 min
# Protocol: (§3) To measure gut permeability (FIGS. 4A and 4B), a section of cecum was opened along the mesenteric border and mounted in Ussing chambers (Physiologic Instruments, San Diego, Calif.), exposing 0.3 cm^2 of tissue surface area to 2.5 ml of oxygenated Krebs-glucose (10 mM) and Krebs-mannitol (10 mM) at 37° C. on the serosal and luminal sides, respectively. The paracellular pathway and transcellular pathway were measured as the flux of FITC-4000 (FD-4; Sigma-Aldrich) and horseradish peroxidase (HRP Type VI; Sigma Aldrich), respectively. FD-4 ([…]) and HRP ([…]) were added to the mucosal chamber, and samples were collected from the serosal chamber every 30 min for 2 h. The concentration of FD-4 was measured via fluorescence at excitation of 485 nm and emission of 538 nm. O-dianisidine substrate was used to detect HRP at absorbance 450 nm. Data are shown as flux at 90 min. Gene expression of IL-22 in the ileum (FIG. 4C) and MCP-1 (FIG. 4E) in adipose tissue were measured as described in Example 2. LBP levels (FIG. 4D) were detected in plasma via enzyme-linked immunosorbent assay according to manufacturer's recommendation (Biometec). […] For FIGS. 4A-4E, statistical analysis was performed by using Prism software (Prism 8.4; GraphPad Software, La Jolla, Calif.). Data are presented as means SEMs. ROUT test was used to exclude outliers. Differences were considered significant if P<0.05.
# [7] = system: lipopolysaccharide-binding protein (LBP); experiment: Plasma LBP level by enzyme-linked immunosorbent assay; format: in vivo, mice; conditions: HF + 10% 2′-FL in drinking water, 6 weeks
# Protocol: as §3
# [8] = system: monocyte chemoattractant protein-1 (MCP-1); experiment: Gene expression of MCP-1 in adipose tissue (real-time PCR); format: in vivo, mice; conditions: HF + 10% 2′-FL in drinking water, 6 weeks
# Protocol: as §3
substance,measurement,setting,value
2′-fucosyllactose [2′-FL],energy intake,[1]; HF diet (45% kcal as fat),suppressed
same,body weight,[1]; HF diet,lower body weight compared with the HF group
same,adipogenesis (adipocyte size in visceral adipose tissue),[2],suppresses adipogenesis
same,adiposity (fat body mass),[2],reduced adiposity
same,lean mass,[2],preserving lean mass
same,gene expression of PPAR γ in the liver,[3],downregulates
same,gene expression of SREBP-1c in the liver,[4],downregulates
same,sensitivity to the satiating effect of CCK (food intake after 20 min),[5],restores sensitivity to CCK
same,intestinal satiety signals (c-Fos immunopositive cells in NTS and AP),c-Fos,restores intestinal satiety signals
same,paracellular permeability (FD-4 flux in cecum),[6],decreased paracellular permeability
same,circulating LPB levels,[7],reduced circulating LPB levels
same,expression of inflammatory cytokines in adipocytes (MCP-1 gene expression in adipose tissue),[8],significant decrease of MCP-1 gene expression; also recorded: systemically lowered expression of inflammatory cytokines in adipocytes
